Reference: ChEMBL document CHEMBL1201861, “Genomics of Drug Sensitity in Cancer screening data, Wellcome Trust Sanger Institute”
Where “and” joins values, the source holds several entries; their conditions need not be identical. Equal values may be shown once.

Assays:
Test in all cases: cells
[1] = test system: NCI-H1581; format: functional, cell-based, Homo sapiens;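 further: cell growth inhibition read out by a viability assay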
Description: SANGER: Inhibition of human NCI-H1581 cell growth in a cell viability assay.

[2] = test system: BE-13; format: functional, cell-based; settings: Homo sapiens;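 further: growth inhibition of human BE-13 cells, measured with a cell viability assay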
Description: SANGER: Inhibition of human BE-13 cell growth in a cell viability assay.

[3] = test system: A2780; format: functional, cell-based, Homo sapiens;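 further: growth inhibition of A2780 cells, read out with a cell viability assay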
Description: SANGER: Inhibition of human A2780 cell growth in a cell viability assay.

[4] = test system: EGI-1; format: functional, cell-based, Homo sapiens;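 further: cell viability readout used to gauge growth inhibition of EGI-1 cells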
Description: SANGER: Inhibition of human EGI-1 cell growth in a cell viability assay.

[5] = test system: LAN-6; format: functional, cell-based, Homo sapiens;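 further: growth inhibition of LAN-6 cells, determined with a cell viability assay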
Description: SANGER: Inhibition of human LAN-6 cell growth in a cell viability assay.

[6] = test system: AGS; format: functional, cell-based, Homo sapiens;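 further: growth inhibition of AGS cells, determined with a cell viability assay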
Description: SANGER: Inhibition of human AGS cell growth in a cell viability assay.

[7] = test system: HT-1080; format: functional, cell-based, Homo sapiens
Description: SANGER: Inhibition of human HT-1080 cell growth in a cell viability assay.

[8] = test system: EW-16; format: functional, cell-based, Homo sapiens;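 further: growth inhibition of human EW-16 cells, read out as cell viability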
Description: SANGER: Inhibition of human EW-16 cell growth in a cell viability assay.

[9] = test system: NCI-H358; format: functional, cell-based, Homo sapiens;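 further: growth inhibition of NCI-H358 human cells, read out with a cell viability assay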
Description: SANGER: Inhibition of human NCI-H358 cell growth in a cell viability assay.

[10] = test system: UMC-11; format: functional, cell-based, Homo sapiens;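 further: growth inhibition of UMC-11 cells, read out with a cell viability assay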
Description: SANGER: Inhibition of human UMC-11 cell growth in a cell viability assay.

[11] = test system: 647-V; format: functional, cell-based, Homo sapiens;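 further: growth inhibition of 647-V cells, read out with a cell viability assay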
Description: SANGER: Inhibition of human 647-V cell growth in a cell viability assay.

[12] = test system: NCI-H1693; format: functional, cell-based, Homo sapiens;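 further: growth inhibition of the human cell line, read out with a cell viability assay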
Description: SANGER: Inhibition of human NCI-H1693 cell growth in a cell viability assay.

[13] = test system: TGBC1TKB; format: functional, cell-based, Homo sapiens;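 further: growth inhibition of TGBC1TKB cells, read out by a cell viability assay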
Description: SANGER: Inhibition of human TGBC1TKB cell growth in a cell viability assay.

[14] = test system: CHP-212; format: functional, cell-based, Homo sapiens
Description: SANGER: Inhibition of human CHP-212 cell growth in a cell viability assay.

[15] = test system: ONS-76; format: functional, cell-based, Homo sapiens;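 further: growth inhibition of human ONS-76 cells, read out with a cell viability assay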
Description: SANGER: Inhibition of human ONS-76 cell growth in a cell viability assay.

[16] = test system: GI-ME-N; format: functional, cell-based, Homo sapiens;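 further: growth inhibition of human GI-ME-N cells, read out with a cell viability assay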
Description: SANGER: Inhibition of human GI-ME-N cell growth in a cell viability assay.

[17] = test system: SNU-449; format: functional, cell-based, Homo sapiens
Description: SANGER: Inhibition of human SNU-449 cell growth in a cell viability assay.

[18] = test system: KP-N-YN; format: functional, cell-based; settings: Homo sapiens;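 further: growth inhibition of KP-N-YN cells, read out with a cell viability assay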
Description: SANGER: Inhibition of human KP-N-YN cell growth in a cell viability assay.

[19] = test system: LB2518-MEL; format: functional, cell-based, Homo sapiens;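 further: growth inhibition of human LB2518-MEL cells, measured with a cell viability assay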
Description: SANGER: Inhibition of human LB2518-MEL cell growth in a cell viability assay.

[20] = test system: SK-MES-1; format: functional, cell-based, Homo sapiens;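 further: growth inhibition of human SK-MES-1 cells, read out with a cell viability assay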
Description: SANGER: Inhibition of human SK-MES-1 cell growth in a cell viability assay.

[21] = test system: GAMG; format: functional, cell-based, Homo sapiens;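 further: cell growth inhibition measured by a viability assay in the GAMG human cell line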
Description: SANGER: Inhibition of human GAMG cell growth in a cell viability assay.

[22] = test system: IST-MES1; format: functional, cell-based, Homo sapiens;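 further: growth inhibition of IST-MES1 cells, measured with a cell viability assay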
Description: SANGER: Inhibition of human IST-MES1 cell growth in a cell viability assay.

[23] = test system: 8-MG-BA; format: functional, cell-based, Homo sapiens;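 further: growth inhibition of 8-MG-BA cells, read out with a cell viability assay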
Description: SANGER: Inhibition of human 8-MG-BA cell growth in a cell viability assay.

[24] = test system: MKN-7; format: functional, cell-based, Homo sapiens;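 further: growth inhibition of MKN-7 cells, read out with a cell viability assay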
Description: SANGER: Inhibition of human MKN7 cell growth in a cell viability assay.

[25] = test system: LB771-HNC; format: functional, cell-based, Homo sapiens;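 further: growth inhibition of LB771-HNC human cells, read out with a cell viability assay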
Description: SANGER: Inhibition of human LB771-HNC cell growth in a cell viability assay.

[26] = test system: Ca9-22; format: functional, cell-based, Homo sapiens;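 further: growth inhibition of Ca9-22 cells, read out with a cell viability assay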
Description: SANGER: Inhibition of human Ca9-22 cell growth in a cell viability assay.

[27] = test system: SK-OV-3; format: functional, cell-based, Homo sapiens;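 further: growth inhibition of SK-OV-3 human cells, read out with a cell viability assay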
Description: SANGER: Inhibition of human SK-OV-3 cell growth in a cell viability assay.

[28] = test system: NCI-H1793; format: functional, cell-based, Homo sapiens;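 further: cell growth inhibition, read out by a cell viability assay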
Description: SANGER: Inhibition of human NCI-H1793 cell growth in a cell viability assay.

[29] = test system: NCI-H1155; format: functional, cell-based; settings: Homo sapiens;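 further: cell growth inhibition measured by a viability assay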
Description: SANGER: Inhibition of human NCI-H1155 cell growth in a cell viability assay.

[30] = test system: SNU-C2B; format: functional, cell-based, Homo sapiens;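 further: cell viability readout used to measure compound-driven suppression of SNU-C2B cell proliferation, IC50 marking half-maximal growth inhibition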
Description: SANGER: Inhibition of human SNU-C2B cell growth in a cell viability assay.

[31] = test system: NCI-H209; format: functional, cell-based; settings: Homo sapiens;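 further: growth inhibition of human NCI-H209 cells, measured by a cell viability assay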
Description: SANGER: Inhibition of human NCI-H209 cell growth in a cell viability assay.

[32] = test system: HAL-01; format: functional, cell-based; settings: Homo sapiens;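 further: growth inhibition of human HAL-01 cells, read out with a cell viability assay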
Description: SANGER: Inhibition of human HAL-01 cell growth in a cell viability assay.

[33] = test system: SCC-25; format: functional, cell-based, Homo sapiens;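 further: growth inhibition of SCC-25 cells, measured with a cell viability assay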
Description: SANGER: Inhibition of human SCC-25 cell growth in a cell viability assay.

[34] = test system: 8505C; format: functional, cell-based, Homo sapiens
Description: SANGER: Inhibition of human 8505C cell growth in a cell viability assay.

[35] = test system: RT-112; format: functional, cell-based, Homo sapiens
Description: SANGER: Inhibition of human RT-112 cell growth in a cell viability assay.

[36] = test system: BCPAP; format: functional, cell-based, Homo sapiens;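 further: growth inhibition of BCPAP cells, read out in a cell viability assay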
Description: SANGER: Inhibition of human BCPAP cell growth in a cell viability assay.

[37] = test system: A253 cell line; format: functional, cell-based, Homo sapiens;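 further: growth inhibition of A253 cells, read out with a cell viability assay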
Description: SANGER: Inhibition of human A253 cell growth in a cell viability assay.

[38] = test system: SJSA-1; format: functional, cell-based, Homo sapiens;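 further: growth inhibition of human SJSA-1 cells, read out through a cell viability measurement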
Description: SANGER: Inhibition of human SJSA-1 cell growth in a cell viability assay.

[39] = test system: NCI-H720; format: functional, cell-based; settings: Homo sapiens;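 further: growth inhibition of human NCI-H720 cells determined by a cell viability assay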
Description: SANGER: Inhibition of human NCI-H720 cell growth in a cell viability assay.

[40] = test system: GP5d; format: functional, cell-based, Homo sapiens;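 further: growth inhibition of human GP5d cells, read out with a cell viability assay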
Description: SANGER: Inhibition of human GP5d cell growth in a cell viability assay.

[41] = test system: Panc1005; format: functional, cell-based, Homo sapiens;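 further: growth inhibition of human PANC-10-05 cells, measured by a cell viability assay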
Description: SANGER: Inhibition of human PANC-10-05 cell growth in a cell viability assay.

[42] = test system: LK-2; format: functional, cell-based, Homo sapiens;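 further: growth inhibition of LK-2 cells, read out with a viability assay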
Description: SANGER: Inhibition of human LK-2 cell growth in a cell viability assay.

[43] = test system: SW1573; format: functional, cell-based, Homo sapiens;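 further: growth inhibition of SW1573 cells, read out with a cell viability assay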
Description: SANGER: Inhibition of human SW1573 cell growth in a cell viability assay.

[44] = test system: NB14; format: functional, cell-based; settings: Homo sapiens;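 further: growth inhibition of NB14 cells measured with a cell viability assay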
Description: SANGER: Inhibition of human NB14 cell growth in a cell viability assay.

[45] = test system: D283 Med; format: functional, cell-based, Homo sapiens
Description: SANGER: Inhibition of human D-283MED cell growth in a cell viability assay.

[46] = test system: NCI-H28; format: functional, cell-based, Homo sapiens;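 further: growth inhibition of human NCI-H28 cells, read out as cell viability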
Description: SANGER: Inhibition of human NCI-H28 cell growth in a cell viability assay.

[47] = test system: KG-1; format: functional, cell-based; settings: Homo sapiens;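 further: growth inhibition of KG-1 cells, read out by a cell viability assay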
Description: SANGER: Inhibition of human KG-1 cell growth in a cell viability assay.

[48] = test system: HOP-62; format: functional, cell-based, Homo sapiens;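 further: cell growth inhibition determined with a viability assay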
Description: SANGER: Inhibition of human HOP-62 cell growth in a cell viability assay.

[49] = test system: A4-Fuk; format: functional, cell-based; settings: Homo sapiens;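 further: growth inhibition of A4-Fuk cells, read out by a cell viability assay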
Description: SANGER: Inhibition of human A4-Fuk cell growth in a cell viability assay.

[50] = test system: NKM-1; format: functional, cell-based; settings: Homo sapiens;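 further: growth inhibition of NKM-1 cells, read out with a cell viability assay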
Description: SANGER: Inhibition of human NKM-1 cell growth in a cell viability assay.

[51] = test system: KURAMOCHI; format: functional, cell-based; settings: Homo sapiens;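 further: growth inhibition of KURAMOCHI cells, read out with a cell viability assay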
Description: SANGER: Inhibition of human KURAMOCHI cell growth in a cell viability assay.

Cc1cc([C@@H](C)Nc2ccccc2C(=O)O)c2nc(N3CCOCC3)cc(=O)n2c1 [AZD-6482]
IC50 ([1]; nci-h1581): > 5.12 µM | IC50 [2]: > 5.12 µM | IC50 ([3]; a2780): > 5.12 µM and 2.56 µM | IC50 ([4]; egi-1): > 5.12 µM | IC50 ([5]; lan-6): > 5.12 µM | IC50 ([6]; Homo sapiens, AGS): > 5.12 µM | IC50 ([6]; ags): > 5.12 µM | IC50 ([7]; ht-1080): > 5.12 µM | IC50 ([8]; ew-16): > 5.12 µM | IC50 ([9]; nci-h358): > 5.12 µM | IC50 ([10]; Homo sapiens, UMC-11): > 5.12 µM | IC50 ([10]; umc-11): > 5.12 µM | IC50 ([11]; 647-v): > 5.12 µM | IC50 ([12]; nci-h1693): > 5.12 µM | IC50 ([13]; tgbc1tkb): > 5.12 µM | IC50 ([14]; chp-212): > 5.12 µM | IC50 ([15]; ons-76): > 5.12 µM | IC50 ([16]; gi-me-n): > 5.12 µM | IC50 ([17]; Homo sapiens, SNU-449): > 5.12 µM | IC50 ([17]; snu-449): > 5.12 µM | IC50 [18]: > 5.12 µM | IC50 ([19]; Homo sapiens, LB2518-MEL): > 5.12 µM | IC50 ([19]; lb2518-mel): > 5.12 µM | IC50 ([20]; sk-mes-1): 0.79 µM and > 5.12 µM | IC50 ([21]; gamg): 4.43 µM and 1.01 µM | IC50 ([22]; ist-mes1): > 5.12 µM | IC50 ([23]; 8-mg-ba): > 5.12 µM | IC50 ([24]; mkn-7): > 5.12 µM | IC50 ([25]; Homo sapiens, LB771-HNC): > 5.12 µM | IC50 ([25]; lb771-hnc): > 5.12 µM | IC50 ([26]; ca9-22): > 5.12 µM | IC50 ([27]; sk-ov-3): 1.2 µM and 4.67 µM | IC50 ([28]; nci-h1793): > 5.12 µM | IC50 [29]: > 5.12 µM | IC50 ([30]; Homo sapiens, SNU-C2B): > 5.12 µM | IC50 ([30]; snu-c2b): > 5.12 µM | IC50 [31]: > 5.12 µM | IC50 [32]: 1.3 µM | IC50 ([33]; scc-25): > 5.12 µM and 4.74 µM | IC50 ([34]; 8505c): > 5.12 µM | IC50 ([35]; Homo sapiens, RT-112): > 5.12 µM | IC50 ([35]; rt-112): > 5.12 µM | IC50 ([36]; Homo sapiens, BCPAP): > 5.12 µM | IC50 ([36]; bcpap): > 5.12 µM | IC50 ([37]; Homo sapiens, A253): > 5.12 µM | IC50 ([37]; a253): > 5.12 µM | IC50 ([38]; Homo sapiens, SJSA-1): > 5.12 µM | IC50 ([38]; sjsa-1): > 5.12 µM | IC50 [39]: > 5.12 µM | IC50 ([40]; Homo sapiens, GP5d): > 5.12 µM | IC50 ([40]; gp5d): > 5.12 µM | IC50 ([41]; panc1005): 2.1 µM and > 5.12 µM | IC50 ([42]; lk-2): > 5.12 µM | IC50 ([43]; sw1573): > 5.12 µM | IC50 [44]: > 5.12 µM | IC50 ([45]; d283 med): > 5.12 µM | IC50 ([46]; nci-h28): > 5.12 µM | IC50 [47]: > 5.12 µM | IC50 ([48]; hop-62): > 5.12 µM | IC50 [49]: 3.08 µM | IC50 [50]: 1.29 µM

O=c1cc(-c2cccc3c2Sc2ccccc2S3)oc(N2CCOCC2)c1 [KU-55933]
IC50 [51]: > 10 µM | IC50 ([1]; Homo sapiens, NCI-H1581): > 10 µM | IC50 [2]: > 10 µM | IC50 ([3]; Homo sapiens, A2780): > 10 µM | IC50 ([4]; Homo sapiens, EGI-1): > 10 µM | IC50 ([5]; Homo sapiens, LAN-6): > 10 µM | IC50 ([6]; Homo sapiens, AGS): > 10 µM | IC50 ([7]; Homo sapiens, HT-1080): > 10 µM | IC50 ([8]; Homo sapiens, EW-16): > 10 µM | IC50 ([9]; Homo sapiens, NCI-H358): > 10 µM | IC50 ([10]; Homo sapiens, UMC-11): > 10 µM | IC50 ([11]; Homo sapiens, 647-V): > 10 µM | IC50 ([12]; Homo sapiens, NCI-H1693): > 10 µM | IC50 ([13]; Homo sapiens, TGBC1TKB): > 10 µM | IC50 ([14]; Homo sapiens, CHP-212): > 10 µM | IC50 ([15]; Homo sapiens, ONS-76): > 10 µM | IC50 ([16]; Homo sapiens, GI-ME-N): > 10 µM | IC50 ([17]; Homo sapiens, SNU-449): > 10 µM | IC50 [18]: > 10 µM | IC50 ([19]; Homo sapiens, LB2518-MEL): > 10 µM | IC50 ([20]; Homo sapiens, SK-MES-1): > 10 µM | IC50 ([21]; Homo sapiens, GAMG): > 10 µM | IC50 ([22]; Homo sapiens, IST-MES1): > 10 µM | IC50 ([23]; Homo sapiens, 8-MG-BA): > 10 µM | IC50 ([24]; Homo sapiens, MKN-7): > 10 µM | IC50 ([25]; Homo sapiens, LB771-HNC): > 10 µM | IC50 ([26]; Homo sapiens, Ca9-22): > 10 µM | IC50 ([27]; Homo sapiens, SK-OV-3): > 10 µM | IC50 ([28]; Homo sapiens, NCI-H1793): > 10 µM | IC50 [29]: > 10 µM | IC50 ([30]; Homo sapiens, SNU-C2B): > 10 µM | IC50 [32]: > 10 µM | IC50 ([33]; Homo sapiens, SCC-25): > 10 µM | IC50 ([34]; Homo sapiens, 8505C): > 10 µM | IC50 ([35]; Homo sapiens, RT-112): > 10 µM | IC50 ([36]; Homo sapiens, BCPAP): > 10 µM | IC50 ([37]; Homo sapiens, A253): > 10 µM | IC50 ([38]; Homo sapiens, SJSA-1): > 10 µM | IC50 ([40]; Homo sapiens, GP5d): > 10 µM | IC50 ([41]; Homo sapiens, Panc1005): > 10 µM | IC50 ([42]; Homo sapiens, LK-2): > 10 µM | IC50 ([43]; Homo sapiens, SW1573): > 10 µM | IC50 [44]: > 10 µM | IC50 ([45]; Homo sapiens, D283 Med): > 10 µM | IC50 ([46]; Homo sapiens, NCI-H28): > 10 µM | IC50 [47]: > 10 µM | IC50 ([48]; Homo sapiens, HOP-62): > 10 µM | IC50 [49]: > 10 µM | IC50 [50]: > 10 µM
